From PubChem BioAssay (NCI)
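GI50: concentration for 50% inhibition of growth. TGI is the concentration that stops growth completely.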

What was measured:
Experiment in all cases: NCI tumour cell line growth inhibition, 384-well format
SNB-75 CNS = system: SNB-75 CNS
TK-10 renal = system: TK-10 renal
UO-31 renal = system: UO-31 renal
SK-MEL-28 melanoma = system: SK-MEL-28 melanoma
UACC-257 melanoma = system: UACC-257 melanoma
SK-MEL-2 melanoma = system: SK-MEL-2 melanoma
HOP-92 NSCLC = system: HOP-92 NSCLC
NCI-H522 lung = system: NCI-H522 lung
MDA-MB-435 melanoma = system: MDA-MB-435 melanoma
A549 NSCLC = system: A549 NSCLC
EKVX NSCLC = system: EKVX NSCLC
MDA-MB-468 breast = system: MDA-MB-468 breast
HL-60(TB) leukemia = system: HL-60(TB) leukemia
K-562 leukemia = system: K-562 leukemia
DU-145 prostate = system: DU-145 prostate
OVCAR-3 ovarian = system: OVCAR-3 ovarian
SF-295 CNS = system: SF-295 CNS
CCRF-CEM leukemia = system: CCRF-CEM leukemia
NCI-H460 NSCLC = system: NCI-H460 NSCLC
CAKI-1 renal = system: CAKI-1 renal
MOLT-4 leukemia = system: MOLT-4 leukemia
SNB-19 CNS = system: SNB-19 CNS
HCC-2998 colon = system: HCC-2998 colon
NCI-H226 lung = system: NCI-H226 lung
OVCAR-5 ovarian = system: OVCAR-5 ovarian
SF-268 CNS = system: SF-268 CNS
NCI/ADR-RES ovarian = system: NCI/ADR-RES ovarian
HT29 colon = system: HT29 colon
ACHN renal = system: ACHN renal
SK-OV-3 ovarian = system: SK-OV-3 ovarian
NCI-H23 lung = system: NCI-H23 lung
SF-539 CNS = system: SF-539 CNS
HCT-116 colon = system: HCT-116 colon
MALME-3M melanoma = system: MALME-3M melanoma
UACC-62 melanoma = system: UACC-62 melanoma
RXF 393 renal = system: RXF 393 renal
HCT-15 colon = system: HCT-15 colon
786-0 renal = system: 786-0 renal
SW-620 colon = system: SW-620 colon
SN12C renal = system: SN12C renal
MCF7 breast = system: MCF7 breast
OVCAR-4 ovarian = system: OVCAR-4 ovarian
T-47D breast = system: T-47D breast
OVCAR-8 ovarian = system: OVCAR-8 ovarian
PC-3 prostate = system: PC-3 prostate
M14 melanoma = system: M14 melanoma
SK-MEL-5 melanoma = system: SK-MEL-5 melanoma

SMILES: COc1cc2nccc(Oc3ccc(NC(=O)C4(C(=O)Nc5ccc(F)cc5)CC4)cc3)c2cc1OC
- GI50 (SNB-75 CNS): 1.29 µM
- TGI (SNB-75 CNS): 4.35 µM
- GI50 (TK-10 renal): 7.66 µM
- TGI (TK-10 renal): 33.7 µM
- GI50 (UO-31 renal): 3.16 µM
- TGI (UO-31 renal): 9.08 µM
- GI50 (SK-MEL-28 melanoma): 3.01 µM
- TGI (SK-MEL-28 melanoma): 11.3 µM
- GI50 (UACC-257 melanoma): 4.62 µM
- TGI (UACC-257 melanoma): 12.6 µM
- GI50 (SK-MEL-2 melanoma): 3.07 µM
- TGI (SK-MEL-2 melanoma): 7.42 µM
- GI50 (HOP-92 NSCLC): 1.29 µM
- TGI (HOP-92 NSCLC): 4.93 µM
- GI50 (NCI-H522 lung): 2.79 µM
- TGI (NCI-H522 lung): 7.77 µM
- GI50 (MDA-MB-435 melanoma): 3.94 µM
- TGI (MDA-MB-435 melanoma): 12 µM
- GI50 (A549 NSCLC): 2.46 µM
- TGI (A549 NSCLC): 6.13 µM
- GI50 (EKVX NSCLC): 4.64 µM
- TGI (EKVX NSCLC): 15.7 µM
- GI50 (MDA-MB-468 breast): 3.67 µM
- TGI (MDA-MB-468 breast): 9.4 µM
- GI50 (HL-60(TB) leukemia): 2.71 µM
- TGI (HL-60(TB) leukemia): 5.24 µM
- GI50 (K-562 leukemia): 0.295 µM
- TGI (K-562 leukemia): 1.07 µM
- GI50 (DU-145 prostate): 4.85 µM
- TGI (DU-145 prostate): 31.5 µM
- GI50 (OVCAR-3 ovarian): 3.36 µM
- TGI (OVCAR-3 ovarian): 10.2 µM
- GI50 (SF-295 CNS): 1.08 µM
- TGI (SF-295 CNS): 6.02 µM
- GI50 (CCRF-CEM leukemia): 1.96 µM
- TGI (CCRF-CEM leukemia): 3.52 µM
- GI50 (NCI-H460 NSCLC): 3.14 µM
- TGI (NCI-H460 NSCLC): 9.27 µM
- GI50 (CAKI-1 renal): 2.62 µM
- TGI (CAKI-1 renal): 9.96 µM
- GI50 (MOLT-4 leukemia): 1.55 µM
- TGI (MOLT-4 leukemia): 3.62 µM
- GI50 (SNB-19 CNS): 7.3 µM
- TGI (SNB-19 CNS): > 55.2 µM
- GI50 (HCC-2998 colon): 5.73 µM
- TGI (HCC-2998 colon): 14 µM
- GI50 (NCI-H226 lung): 1.41 µM
- TGI (NCI-H226 lung): 4.74 µM
- GI50 (OVCAR-5 ovarian): 2.96 µM
- TGI (OVCAR-5 ovarian): 10.7 µM
- GI50 (SF-268 CNS): 3.68 µM
- TGI (SF-268 CNS): 12.4 µM
- GI50 (NCI/ADR-RES ovarian): 2.52 µM
- TGI (NCI/ADR-RES ovarian): 9.33 µM
- GI50 (HT29 colon): 3.17 µM
- TGI (HT29 colon): 12.3 µM
- GI50 (ACHN renal): 3.54 µM
- TGI (ACHN renal): 16 µM
- GI50 (SK-OV-3 ovarian): 4.97 µM
- TGI (SK-OV-3 ovarian): 15.8 µM
- GI50 (NCI-H23 lung): 1.34 µM
- TGI (NCI-H23 lung): 6.54 µM
- GI50 (SF-539 CNS): 1.32 µM
- TGI (SF-539 CNS): 4.74 µM
- GI50 (HCT-116 colon): 3.78 µM
- TGI (HCT-116 colon): 14.2 µM
- GI50 (MALME-3M melanoma): 2 µM
- TGI (MALME-3M melanoma): 5.44 µM
- GI50 (UACC-62 melanoma): 2.23 µM
- TGI (UACC-62 melanoma): 6.52 µM
- GI50 (RXF 393 renal): 2.73 µM
- TGI (RXF 393 renal): 5.49 µM
- GI50 (HCT-15 colon): 3.22 µM
- TGI (HCT-15 colon): 10.4 µM
- GI50 ([…]-0 renal): 4.47 µM
- TGI (786-0 renal): 19 µM
- GI50 (SW-620 colon): 2.13 µM
- TGI (SW-620 colon): 5.57 µM
- GI50 (SN12C renal): 0.372 µM
- TGI (SN12C renal): 4.71 µM
- GI50 (MCF7 breast): 3.55 µM
- TGI (MCF7 breast): 11.1 µM
- GI50 (OVCAR-4 ovarian): 4.01 µM
- TGI (OVCAR-4 ovarian): 13.1 µM
- GI50 (T-47D breast): 2.78 µM
- TGI (T-47D breast): 10 µM
- GI50 (OVCAR-8 ovarian): 3.88 µM
- TGI (OVCAR-8 ovarian): 14.6 µM
- GI50 (PC-3 prostate): 3.8 µM
- TGI (PC-3 prostate): 15.4 µM
- GI50 (M14 melanoma): 2.67 µM
- TGI (M14 melanoma): 7.03 µM
- GI50 (SK-MEL-5 melanoma): 2.19 µM
- TGI (SK-MEL-5 melanoma): 6.58 µM
